Test results published in patent publication US20180327367A1, “MACROCYCLIC BROAD SPECTRUM ANTIBIOTICS” (priority 2015, published 2018).
≈ marks a conversion by molar mass, not a printed value. Read-outs that look alike come from different tables or passages of the source.

Legend:
[1] = target: T1, SpsB (Staphylococcus aureus signal peptidase) (Staphylococcus aureus, UniProt P0A070); assay: cell-based; format: biochemical; conditions: SpsB IC50, whole-cell S. aureus (USA300 background, overexpressing SpsB) as SpsB source; fluorogenic peptide substrate, kinetic read 30 min
T1 construct: This assay uses a suspension of Staphylococcus aureus cells as a source of SpsB instead of recombinant SpsB protein; endogenous in cells; host or cells: S. aureus, USA300 background, overexpressing SpsB (whole-cell suspension from frozen pellets)
Outline: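 Whole S. aureus cells (USA300, overexpressing SpsB) in PBS with MgCl2, CaCl2 and 0.1% Tween-80 served as enzyme source, mixed with 20 μM stock of (Dabcyl)βAla-KPAKAAE(Edans) substrate before use. Fluorescence (ex 340/em 490 nm) read kinetically over 30 min. IC50 from reaction rate versus 11-point inhibitor concentration.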

[2] = system: Escherichia coli ATCC 25922; assay: Minimum inhibitory concentration, broth micro-dilution (CLSI), E. coli; format: cell-based; conditions: Escherichia coli, ATCC25922, 22 h, 35° C., 22 hours
[3] = system: Methicillin Resistant Staphylococcus aureus strain USA 300, NRS384; assay: Minimum inhibitory concentration, broth micro-dilution (CLSI), S. aureus; format: cell-based; conditions: Staphylococcus aureus, MRSA / NRS 384 / USA300, 22 h, 35° C., 22 hours
Outline: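 Colonies grown 20 hours at 35° C were suspended in cation-adjusted Mueller Hinton Broth with 0.002% Tween-80. Cells were then added to 2-fold compound dilutions starting at 4 or 0.5 μg/mL, at OD600 0.0005.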

[4] = system: Escherichia coli MC4100 harboring the IMP4213 (E. coli IMP); assay: microbe, parasite or virus in culture; format: cell-based; conditions: Escherichia coli, 22 h, read-out: MIC (μg/mL) E. coli IMP, E. coli MC4100 IMP4213, increased outer-membrane permeability; 35° C., 22 hours
Outline: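 Broth micro-dilution per CLSI in cation-adjusted Mueller Hinton Broth with 0.002% Tween-80; E. coli MC4100 carries IMP4213, raising outer-membrane permeability. Compounds tested as 2-fold serial dilutions (10 concentrations) from 4 μg/mL (protocol 2) or 0.5 μg/mL (protocol 3); inoculum OD600 0.0005, 35° C for 22 hours.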

[5] = E. coli ATCC 25922, read-out: MIC (μg/mL) E. coli
[6] = MRSA USA 300 NRS384, read-out: MIC (μg/mL) S. aureus
[7] = read-out: MIC (μg/mL) E. coli, E. coli ATCC 25922
[8] = read-out: MIC (μg/mL) S. aureus, MRSA USA 300 NRS384

T1 sequence (P0A070 whole entry): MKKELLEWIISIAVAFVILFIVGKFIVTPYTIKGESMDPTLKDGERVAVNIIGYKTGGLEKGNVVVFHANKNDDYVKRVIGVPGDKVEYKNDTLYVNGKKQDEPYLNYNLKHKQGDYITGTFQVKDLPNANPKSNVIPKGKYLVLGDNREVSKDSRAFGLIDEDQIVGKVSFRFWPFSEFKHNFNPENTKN

Row | Compound | IC50 [1] [nM] | MIC [2, 5] [µg/mL] | MIC [3, 6] [µg/mL] | MIC [4] [µg/mL] | MIC [2, 7] [µg/mL] | MIC [3, 8] [µg/mL]
1 | CCCCCCCCCC(=O)NCCC(=O)N[C@@H](CCN)C(=O)N(C)[C@@H]1C(=O)N[C@@H](C)C(=O)N[C@H](C(=O)NCC#N)Cc2ccc(OCCN)c(c2)-c2cc1ccc2OCCN [Compound 367] | 0.88 | 12 (≈ 13.9 µM) | 0.094 (≈ 0.109 µM) | 0.13 (≈ 0.151 µM) |  | 
2 | CCCCCCCCCNC(=O)CCC(=O)N[C@@H](CCN)C(=O)N(C)[C@@H]1C(=O)N[C@@H](C)C(=O)N[C@H](C(=O)NCC#N)Cc2ccc(OCCN)c(c2)-c2cc1ccc2OCCN [Compound 369] | 0.47 | 4 (≈ 4.63 µM) | 0.063 (≈ 0.073 µM) | 0.063 (≈ 0.073 µM) |  | 
3 | CCCCc1ccc(C(=O)NCC(=O)N[C@@H](CCN)C(=O)N(C)[C@@H]2C(=O)N[C@@H](C)C(=O)N[C@H](C(=O)NCC#N)Cc3ccc(OCCN)c(c3)-c3cc2ccc3OCCN)c(C)c1 [Compound 370] | 1.1 |  |  | 0.13 (≈ 0.15 µM) | 16 (≈ 18.4 µM) | 0.19 (≈ 0.219 µM)
4 | CCCCc1ccc(C(=O)NCC(=O)NCC(=O)N[C@@H](CCN)C(=O)N(C)[C@@H]2C(=O)N[C@@H](C)C(=O)N[C@H](C(=O)NCC#N)Cc3ccc(OCCN)c(c3)-c3cc2ccc3OCCN)c(C)c1 [Compound 371] | 1.3 |  |  | 0.5 (≈ 0.54 µM) | 32 (≈ 34.6 µM) | 0.25 (≈ 0.27 µM)
5 | CCCCCCCCCC(=O)NCC(=O)N[C@@H](CCN)C(=O)N(C)[C@@H]1C(=O)N[C@@H](C)C(=O)N[C@H](C(=O)NCC#N)Cc2ccc(OCCN)c(c2)-c2cc1ccc2OCCN [Compound 372] | 0.47 |  |  | 0.094 (≈ 0.111 µM) | 8 (≈ 9.42 µM) | 0.13 (≈ 0.153 µM)
6 | CCCCCCCCCC(=O)N[C@@H](C)C(=O)N[C@@H](CCN)C(=O)N(C)[C@@H]1C(=O)N[C@@H](C)C(=O)N[C@H](C(=O)NCC#N)Cc2ccc(OCCN)c(c2)-c2cc1ccc2OCCN [Compound 373] | 0.88 |  |  | 0.063 (≈ 0.073 µM) | 4 (≈ 4.63 µM) | 0.19 (≈ 0.22 µM)
7 | CCCCc1ccc(NC(=O)CCC(=O)N[C@@H](CCN)C(=O)N(C)[C@@H]2C(=O)N[C@@H](C)C(=O)N[C@H](C(=O)NCC#N)Cc3ccc(OCCN)c(c3)-c3cc2ccc3OCCN)c(C)c1 [Compound 377] | 1 | 8 (≈ 9.06 µM) | 0.13 (≈ 0.147 µM) | 0.13 (≈ 0.147 µM) |  | 
8 | CCCCCCCCCC(=O)N[C@@H](CCO)C(=O)N[C@@H](CCN)C(=O)N(C)[C@@H]1C(=O)N[C@@H](C)C(=O)N[C@H](C(=O)NCC#N)Cc2ccc(OCCN)c(c2)-c2cc1ccc2OCCN [Compound 378] | 0.87 |  |  | 0.25 (≈ 0.28 µM) | 24 (≈ 26.9 µM) | 0.13 (≈ 0.146 µM)
9 | CCCCCCCCCC(=O)N[C@H](CCO)C(=O)N[C@@H](CCN)C(=O)N(C)[C@@H]1C(=O)N[C@@H](C)C(=O)N[C@H](C(=O)NCC#N)Cc2ccc(OCCN)c(c2)-c2cc1ccc2OCCN [Compound 379] | 0.89 |  |  | 0.25 (≈ 0.28 µM) | 32 (≈ 35.8 µM) | 0.25 (≈ 0.28 µM)
10 | CCCCc1ccc(C(=O)N[C@H](CCO)C(=O)N[C@@H](CCN)C(=O)N(C)[C@@H]2C(=O)N[C@@H](C)C(=O)N[C@H](C(=O)NCC#N)Cc3ccc(OCCN)c(c3)-c3cc2ccc3OCCN)c(C)c1 [Compound 381] | 2.9 |  |  | 0.5 (≈ 0.548 µM) | 64 (≈ 70.1 µM) | 0.5 (≈ 0.548 µM)
11 | CCCCCCCc1ccc(C(=O)N[C@@H](CO)C(=O)N[C@@H](CCN)C(=O)N(C)[C@@H]2C(=O)N[C@@H](C)C(=O)N[C@H](C(=O)NCC#N)Cc3ccc(OCCN)c(c3)-c3cc2ccc3OCCN)cc1 [Compound 383] | 0.88 |  |  | 0.023 (≈ 0.0248 µM) | 4 (≈ 4.31 µM) | 0.018 (≈ 0.0194 µM)
12 | CCCCCCCCCCCC(=O)N[C@@H](CO)C(=O)N[C@@H](CCN)C(=O)N(C)[C@@H]1C(=O)N[C@@H](C)C(=O)N[C@H](C(=O)NCC#N)Cc2ccc(OCCN)c(c2)-c2cc1ccc2OCCN [Compound 384] | 1.2 |  |  | 0.031 (≈ 0.0342 µM) | 3 (≈ 3.31 µM) | 0.012 (≈ 0.0132 µM)
13 | CCCCCCCSc1ccc(C(=O)N[C@@H](CCN)C(=O)N(C)[C@@H]2C(=O)N[C@@H](C)C(=O)N[C@H](C(=O)NCC#N)Cc3ccc(OCCN)c(c3)-c3cc2ccc3OCCN)c(C)c1 [Compound 389] | 0.81 | 0.25 (≈ 0.282 µM) | 0.063 (≈ 0.0711 µM) | 0.031 (≈ 0.035 µM) |  | 
14 | CCCCCCCS(=O)(=O)c1ccc(C(=O)N[C@@H](CCN)C(=O)N(C)[C@@H]2C(=O)N[C@@H](C)C(=O)N[C@H](C(=O)NCC#N)Cc3ccc(OCCN)c(c3)-c3cc2ccc3OCCN)c(C)c1 [Compound 390] | 1.1 | 3 (≈ 3.27 µM) | 0.13 (≈ 0.142 µM) | 0.031 (≈ 0.0338 µM) |  | 
